This passage reports IC50 results from patent US20230414616A1, “LINE-1 INHIBITORS TO TREAT DISEASE” (Transposon Therapeutics, Inc., priority 2020, published 2023).

The assay has as its system human LINE-1. Nature of the assay: Human LINE-1 retrotransposition assay (HeLa cell-based dual-luciferase reporter). Particulars: HeLa cells, reporter plasmid pYX017, 72 h incubation, Firefly/Renilla. The protocol:
Representative Compounds of the Disclosure were tested for inhibition of retrotransposition activity of human LINE-1 in HeLa cells according to the following procedure.
HeLa cervical cancer cells were cultivated at 37° C. in a humidified 5% CO2 incubator in Dulbecco's Modified Eagle's Medium (DMEM)—high glucose, with 4500 mg/L glucose, L-glutamine, sodium pyruvate and sodium bicarbonate (Sigma), supplemented with 10% of heat inactivated fetal bovine serum (Thermo Fisher).
Assays were performed using reporter plasmid pYX017 as described (Xie, et al., 2011) with several modifications. The reporter assay was performed in 96-well white optical bottom plates. HeLa cells were seeded in wells 24 h prior to transfection and compound treatment so that cells were approximately 30% confluent on the day of transfection. Different cell plating densities were tested and a density of 2×10^3 cells was determined to be optimal.
Compounds were resuspended in DMSO. Serial dilutions (1:3) were prepared in DMSO. Medium containing different concentrations of the compounds were prepared by adding 2 μl of the compound dilution to 1 ml of the culture medium. The final concentration of DMSO in the medium was 0.2%.
FuGENE® HD transfection reagent (Promega, E2311, Lot 382574 and Lot 397842) was used to transfect the plasmids into the cells. […] Different ratios of transfection reagent to DNA were tested and a ratio of 3:1 was determined to be optimal. […] A 72 h incubation time was determined to be optimal.
Luciferase reporter activity was quantified with the Dual-Luciferase® Reporter Assay System (Promega) according to manufacturer's instructions for multiwell plates except that cells were lysed directly on the multiwell plate with 30 μl of the passive lysis buffer (PLB) for 20 min at room temperature, with gentle shaking to ensure complete cell lysis.
Firefly and Renilla luciferase signals were measured using a SpectraMax i3x Multi-Mode Microplate Reader. […] Relative L1 activity is calculated as Firefly/Renilla *1000 or Firefly/Renilla *10,000. […]

The structures appear in SMILES notation.

Usually IC50 stands for the concentration that inhibits the measured activity by half. Low readings indicate inhibition by little substance, high ones a need for much substance. Turning to `CC(C)OC(=O)[C@H](C)N[P@](=O)(CO[C@H](C)Cn1cnc2c(N)ncnc21)Oc1ccccc1` [tenofovir alafenamide, reference compound], the IC50 stood at 10 nM.

The compound `CC[C@]1(CO)O[C@@H](n2cnc3c(O)nc(N)nc32)C[C@@H]1O` [Compound 27] had an IC50 (HeLa, 72 h) of 2.6 nM.

As for `C#C[C@]1(CO)O[C@@H](n2cc(F)c(=O)[nH]c2=O)C[C@@H]1O` [Compound 15], 830 nM corresponded to half-maximal inhibition (HeLa, 72 h) (IC50).
